Read-outs that look alike come from different tables or passages of the source.
How the values were obtained:
[1] = test system: cells from the thymus of normal BALB/c mice (lymphocyte proliferation); experiment: comitogen-induced thymocyte proliferation procedure (LAF); assay type: cell-based; details: Mus musculus; for IC50: read-out: LAF IC50
Procedure: (§1) Immunosuppressive activity was evaluated in an in vitro standard pharmacological test procedure to measure lymphocyte proliferation (LAF) and in two in vivo standard pharmacological test procedures. The first in vivo procedure was a popliteal lymph node (PLN) test procedure which measured the effect of compounds of this invention on a mixed lymphocyte reaction and the second in vivo procedure evaluated the survival time of a pinch skin graft.
Briefly, cells from the thymus of normal BALB/c mice are cultured for 72 hours with PHA and IL-1 and pulsed with tritiated thymidine during the last six hours. […] Cells are harvested and incorporated radioactivity is determined. Inhibition of lymphoproliferation is assessed as percent change in counts per minute from non-drug treated controls. The results are expressed as an IC50. [formula]

[2] = test system: popliteal lymph node, mixed lymphocyte reaction; experiment: popliteal lymph node (PLN) test procedure (in vivo mixed lymphocyte reaction); parameters: species or system C3H mice (recipients), BALB/c donors; details: for PLN (ratio): p.o. daily Day 0 to Day 4, rapamycin = 1.00
Procedure: as §1
A mixed lymphocyte reaction (MLR) occurs when lymphoid cells from genetically distinct animals are combined in tissue culture. Each stimulates the other to undergo blast transformation which results in increased DNA synthesis that can be quantified by the incorporation of tritiated thymidine. Since stimulating a MLR is a function of disparity at Major Histocompatibility antigens, an in vivo popliteal lymph node (PLN) test procedure closely correlates to host vs. graft disease. Briefly, irradiated spleen cells from BALB/c donors are injected into the right hind foot pad of recipient C3H mice. The drug is given daily, p.o. from Day 0 to Day 4. On Day 3 and Day 4, tritiated thymidine is given i.p., b.i.d. On Day 5, the hind popliteal lymph nodes are removed and dissolved, and radioactivity counted. The corresponding left PLN serves as the control for the PLN from the injected hind foot. Percent suppression is calculated using the non-drug treated animals as allogenic control. […] Results are expressed by the following ratio: [formula]

[3] = test system: pinch skin graft from male DBA/2 donors transplanted to male BALB/c recipients; experiment: survival time of pinch skin graft; assay type: in vivo, DBA/2 donors (mice); details: intraperitoneally; mean ± S.D.; untreated grafts typically rejected within 6-7 days
Procedure: as §1
The second in vivo test procedure is designed to determine the survival time of pinch skin graft from male DBA/2 donors transplanted to male BALB/c recipients. The method is adapted from Billingham R. E. and Medawar P. B., J. Exp. Biol. 28:385-402, (1951). Briefly, a pinch skin graft from the donor is grafted on the dorsum of the recipient as a homograft, and an autograft is used as control in the same region. […] Untreated recipients serve as rejection control. The graft is monitored daily and observations are recorded until the graft becomes dry and forms a blackened scab. This is considered as the rejection day. The mean graft survival time (number of days ±S.D.) of the drug treatment group is compared with the control group.

[4] = FASEB 1989; Lancet 1978; cited from earlier work
[5] = test system: experimental allergic encephalomyelitis model, a model for multiple sclerosis; details: R. Martel et al. 1977; cited from earlier work
IgE-like antibodies = details: R. Martel et al. 1977; cited from earlier work
[6] = thymocytes cultured 72 h with PHA and IL-1, tritiated thymidine incorporation, vs non-drug treated controls

## CO[C@H]1C[C@@H]2CC[C@@H](C)[C@@](O)(O2)C(=O)C(=O)N2CCCC[C@H]2C(=O)O[C@H]([C@H](C)C[C@@H]2CC[C@@H](OC(=O)Nc3ccc(F)cc3)[C@H](OC)C2)CC(=O)[C@H](C)/C=C(\C)[C@@H](O)[C@@H](OC)C(=O)[C@H](C)C[C@H](C)/C=C/C=C/C=C/1C [Example 1, Rapamycin 42-ester with (4-fluorophenyl)carbamic acid]
[1]; [6]
  IC50: 8.6 nM
[2]
  PLN (ratio): 0.71 ratio
[3]
  Skin Graft (mean graft survival time, days + SD): 8.5 ± 1.6 days

## CO[C@H]1C[C@@H]2CC[C@@H](C)[C@@](O)(O2)C(=O)C(=O)N2CCCC[C@H]2C(=O)O[C@H]([C@H](C)C[C@@H]2CC[C@@H](OC(=O)Nc3ccccc3)[C@H](OC)C2)CC(=O)[C@H](C)/C=C(\C)[C@@H](O)[C@@H](OC)C(=O)[C@H](C)C[C@H](C)/C=C/C=C/C=C/1C [Example 2, Rapamycin 42-ester with phenylcarbamic acid]
[1]; [6]
  IC50: 3.9 nM
[2]
  PLN (ratio): 0.47 ratio
[3]
  Skin Graft (mean graft survival time, days + SD): 8.5 ± 1.2 days

## CO[C@H]1C[C@@H]2CC[C@@H](C)[C@@](O)(O2)C(=O)C(=O)N2CCCC[C@H]2C(=O)O[C@H]([C@H](C)C[C@@H]2CC[C@@H](OC(=O)Nc3ccc(C(F)(F)F)cc3)[C@H](OC)C2)CC(=O)[C@H](C)/C=C(\C)[C@@H](OC(=O)Nc2ccc(C(F)(F)F)cc2)[C@@H](OC)C(=O)[C@H](C)C[C@H](C)/C=C/C=C/C=C/1C [Example 3, Rapamycin-31,42-diester with [4-(trifluoromethyl)phenyl]carbamic acid]
[1]; [6]
  IC50: > 1000 nM

## CO[C@H]1C[C@@H]2CC[C@@H](C)[C@@](O)(O2)C(=O)C(=O)N2CCCC[C@H]2C(=O)O[C@H]([C@H](C)C[C@@H]2CC[C@@H](OC(=O)Nc3ccc(C(F)(F)F)cc3)[C@H](OC)C2)CC(=O)[C@H](C)/C=C(\C)[C@@H](O)[C@@H](OC)C(=O)[C@H](C)C[C@H](C)/C=C/C=C/C=C/1C [Example 4, Rapamycin-42-ester with [4-(trifluoromethyl)phenyl]carbamic acid]
[1]; [6]
  IC50: 57.9 nM
[2]
  PLN (ratio): 0.90 ratio

## CO[C@H]1C[C@@H]2CC[C@@H](C)[C@@](O)(O2)C(=O)C(=O)N2CCCC[C@H]2C(=O)O[C@H]([C@H](C)C[C@@H]2CC[C@@H](OC(=O)Nc3ccc([N+](=O)[O-])cc3)[C@H](OC)C2)CC(=O)[C@H](C)/C=C(\C)[C@@H](OC(=O)Nc2ccc([N+](=O)[O-])cc2)[C@@H](OC)C(=O)[C@H](C)C[C@H](C)/C=C/C=C/C=C/1C [Example 5, Rapamycin-31,42-diester with (4-nitrophenyl)carbamic acid]
[1]; read-out: LAF percent inhibition
  inhibition at 0.1 µM: 3%

## CO[C@H]1C[C@@H]2CC[C@@H](C)[C@@](O)(O2)C(=O)C(=O)N2CCCC[C@H]2C(=O)O[C@H]([C@H](C)C[C@@H]2CC[C@@H](OC(=O)Nc3ccc([N+](=O)[O-])cc3)[C@H](OC)C2)CC(=O)[C@H](C)/C=C(\C)[C@@H](O)[C@@H](OC)C(=O)[C@H](C)C[C@H](C)/C=C/C=C/C=C/1C [Example 6, Rapamycin-42-ester with (4-nitrophenyl)carbamic acid]
[1]; [6]
  IC50: 10.4 nM
[2]
  PLN (ratio): 0.25 ratio
[3]
  Skin Graft (mean graft survival time, days + SD): 8.3 ± 1.0 days

## CO[C@H]1C[C@@H]2CC[C@@H](C)[C@@](O)(O2)C(=O)C(=O)N2CCCC[C@H]2C(=O)O[C@H]([C@H](C)C[C@@H]2CC[C@@H](OC(=O)Nc3ccc(C)cc3)[C@H](OC)C2)CC(=O)[C@H](C)/C=C(\C)[C@@H](O)[C@@H](OC)C(=O)[C@H](C)C[C@H](C)/C=C/C=C/C=C/1C [Example 8, Rapamycin-42-ester with (4-methylphenyl)carbamic acid]
[1]; [6]
  IC50: 7.4 nM
[3]
  Skin Graft (mean graft survival time, days + SD): 8.8 ± 1.3 days

## CO[C@H]1C[C@@H]2CC[C@@H](C)[C@@](O)(O2)C(=O)C(=O)N2CCCC[C@H]2C(=O)O[C@H]([C@H](C)C[C@@H]2CC[C@@H](OC(=O)Nc3ccc(F)cc3F)[C@H](OC)C2)CC(=O)[C@H](C)/C=C(\C)[C@@H](O)[C@@H](OC)C(=O)[C@H](C)C[C@H](C)/C=C/C=C/C=C/1C [Example 9, Rapamycin-42-ester with (2,4-difluorophenyl)carbamic acid]
[1]; [6]
  IC50: 8.7 nM
[2]
  PLN (ratio): 0.72 ratio
[3]
  Skin Graft (mean graft survival time, days + SD): 8.0 ± 1.7 days

## CO[C@H]1C[C@@H]2CC[C@@H](C)[C@@](O)(O2)C(=O)C(=O)N2CCCC[C@H]2C(=O)O[C@H]([C@H](C)C[C@@H]2CC[C@@H](OC(=O)Nc3ccc(F)cc3F)[C@H](OC)C2)CC(=O)[C@H](C)/C=C(\C)[C@@H](OC(=O)Nc2ccc(F)cc2F)[C@@H](OC)C(=O)[C@H](C)C[C@H](C)/C=C/C=C/C=C/1C [Example 10, Rapamycin-31,42-diester with (2,4-difluorophenyl)carbamic acid]
[1]; [6]
  IC50: > 1000 nM

## CO[C@H]1C[C@@H]2CC[C@@H](C)[C@@](O)(O2)C(=O)C(=O)N2CCCC[C@H]2C(=O)O[C@H]([C@H](C)C[C@@H]2CC[C@@H](OC(=O)Nc3ccccc3)[C@H](OC)C2)CC(=O)[C@H](C)/C=C(\C)[C@@H](OC(=O)Nc2ccccc2)[C@@H](OC)C(=O)[C@H](C)C[C@H](C)/C=C/C=C/C=C/1C [Example 11, Rapamycin-31,42-diester with phenylcarbamic acid]
[1]; [6]
  IC50: > 1000 nM

## CO[C@H]1C[C@@H]2CC[C@@H](C)[C@@](O)(O2)C(=O)C(=O)N2CCCC[C@H]2C(=O)O[C@H]([C@H](C)C[C@@H]2CC[C@@H](OC(=O)Nc3ccc(F)cc3)[C@H](OC)C2)CC(=O)[C@H](C)/C=C(\C)[C@@H](OC(=O)Nc2ccc(F)cc2)[C@@H](OC)C(=O)[C@H](C)C[C@H](C)/C=C/C=C/C=C/1C [Example 12, Rapamycin-31,42-diester with (4-fluorophenyl)carbamic acid]
[1]; [6]
  IC50: > 1000 nM

## CO[C@H]1C[C@@H]2CC[C@@H](C)[C@@](O)(O2)C(=O)C(=O)N2CCCC[C@H]2C(=O)O[C@H]([C@H](C)C[C@@H]2CC[C@@H](O[Si](C)(C)C(C)(C)C)[C@H](OC)C2)CC(=O)[C@H](C)/C=C(\C)[C@@H](OC(=O)Nc2ccc(F)cc2F)[C@@H](OC)C(=O)[C@H](C)C[C@H](C)/C=C/C=C/C=C/1C [Example 14, Rapamycin-42-tert-butyldimethylsilyl ether-31-ester with (2,4-difluorophenyl)carbamic acid]
[1]; 72 h
  IC50: > 1000 nM

## CO[C@H]1C[C@@H]2CC[C@@H](C)[C@@](O)(O2)C(=O)C(=O)N2CCCC[C@H]2C(=O)O[C@H]([C@H](C)C[C@@H]2CC[C@@H](O)[C@H](OC)C2)CC(=O)[C@H](C)/C=C(\C)[C@@H](OC(=O)Nc2ccc(F)cc2F)[C@@H](OC)C(=O)[C@H](C)C[C@H](C)/C=C/C=C/C=C/1C [Example 15, Rapamycin-31-ester with (2,4-difluorophenyl)carbamic acid]
[1]; [6]
  IC50: > 1000 nM

## C=CC[C@@H]1/C=C(\C)C[C@H](C)C[C@H](OC)[C@H]2O[C@@](O)(C(=O)C(=O)N3CCCC[C@H]3C(=O)O[C@H](/C(C)=C/[C@@H]3CC[C@@H](O)[C@H](OC)C3)[C@H](C)[C@@H](O)CC1=O)[C@H](C)C[C@@H]2OC [FK-506]
[4]
  immunosuppressive effects: effective as immunosuppressive agents

## CO[C@H]1C[C@@H]2CC[C@@H](C)[C@@](O)(O2)C(=O)C(=O)N2CCCC[C@H]2C(=O)O[C@H]([C@H](C)C[C@@H]2CC[C@@H](O)[C@H](OC)C2)CC(=O)[C@H](C)/C=C(\C)[C@@H](O)[C@@H](OC)C(=O)[C@H](C)C[C@H](C)/C=C/C=C/C=C/1C [Rapamycin]
[1]; 72 h
  IC50: 3.2 to 9.4 nM
[2]; 6 mg/kg, p.o., vs non-drug treated animals as allogenic control
  percent suppression (PLN): 86%
[2]
  PLN (ratio): 1.00 ratio
[3]
  Skin Graft (mean graft survival time, days + SD): 12.0 ± 1.7 days
[5]
  effect in experimental allergic encephalomyelitis model: effective in the experimental allergic encephalomyelitis model
IgE-like antibodies
  inhibition of formation of IgE-like antibodies: effectively inhibited the formation of IgE-like antibodies
[4]
  immunosuppressive effects: immunosuppressive effects

Reference: patent US5118678A, “Carbamates of rapamycin” (American Home Products Corporation, priority 1991, dated 1992)
